Assay results taken from PubChem BioAssay (NCI).
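Tested at 5 concentrations; 48 h exposure; 96-well plates; endpoints linearly interpolated, else capped at highest concentration. At the GI50, growth is halved. The concentration for full growth arrest is given as TGI.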

Assays:
Assay in all cases: NCI-60 cell line screen, 48 h
[1] = tested on: NCI-H226 lung
[2] = tested on: HOP-62 NSCLC
[3] = tested on: MDA-MB-231 breast
[4] = tested on: MOLT-4 leukemia
[5] = tested on: NCI-H522 lung
[6] = tested on: A549 NSCLC
[7] = tested on: M14 melanoma
[8] = tested on: SNB-19 CNS
[9] = tested on: SW-620 colon
[10] = tested on: T-47D breast
[11] = tested on: A498 renal
[12] = tested on: BT-549 breast
[13] = tested on: COLO 205 colon
[14] = tested on: RPMI-8226 leukemia
[15] = tested on: HOP-92 NSCLC
[16] = tested on: UACC-62 melanoma
[17] = tested on: OVCAR-3 ovarian
[18] = tested on: OVCAR-5 ovarian
[19] = tested on: UACC-257 melanoma
[20] = tested on: SK-MEL-2 melanoma
[21] = tested on: MALME-3M melanoma
[22] = tested on: HCT-15 colon
[23] = tested on: OVCAR-4 ovarian
[24] = tested on: SR leukemia
[25] = tested on: NCI-H460 lung
[26] = tested on: SF-539 CNS
[27] = tested on: HCC-2998 colon
[28] = tested on: NCI/ADR-RES ovarian

Q: CN(C)CCCNc1c2ccc(Cl)cc2nc2c1oc1ccc(Cl)cc12 was tested. Which GI50 [1] did it give?
A: The GI50 was 6.32 µM.

Q: What about the TGI [1] of the same molecule?
A: Its TGI is 20.9 µM.

Q: And the GI50 [2]?
A: The GI50 was 5.21 µM.

Q: And the TGI [2]?
A: The TGI was 19.6 µM.

Q: What about the GI50 [3] of the same molecule?
A: Its GI50 is 2.19 µM.

Q: What about the TGI [3] of the same molecule?
A: Its TGI is 5.94 µM.

Q: What about the GI50 [4] of the same molecule?
A: The GI50 was 3.14 µM.

Q: What about the TGI [4] of the same molecule?
A: Its TGI is 11.8 µM.

Q: And the GI50 [5]?
A: Its GI50 is 4.22 µM.

Q: What about the TGI [5] of the same molecule?
A: Its TGI is 17 µM.

Q: What about the GI50 [6] of the same molecule?
A: Its GI50 is 1.67 µM.

Q: What about the TGI [6] of the same molecule?
A: Its TGI is 3.18 µM.

Q: And the GI50 [7]?
A: Its GI50 is 1.71 µM.

Q: And the TGI [7]?
A: The TGI was 3.78 µM.

Q: What about the GI50 [8] of the same molecule?
A: Its GI50 is 5.97 µM.

Q: And the TGI [8]?
A: The TGI was 18.8 µM.

Q: What about the GI50 [9] of the same molecule?
A: Its GI50 is 1.64 µM.

Q: And the TGI [9]?
A: The TGI was 3.63 µM.

Q: And the GI50 [10]?
A: Its GI50 is 13.1 µM.

Q: What about the TGI [10] of the same molecule?
A: Its TGI is 29.2 µM.

Q: And the GI50 [11]?
A: Its GI50 is 15.3 µM.

Q: What about the TGI [11] of the same molecule?
A: The TGI was 31.4 µM.

Q: What about the GI50 [12] of the same molecule?
A: The GI50 was 11.4 µM.

Q: And the TGI [12]?
A: Its TGI is 25 µM.

Q: And the GI50 [13]?
A: The GI50 was 4.58 µM.

Q: What about the TGI [13] of the same molecule?
A: Its TGI is 20 µM.

Q: What about the GI50 [14] of the same molecule?
A: Its GI50 is 2.58 µM.

Q: What about the TGI [14] of the same molecule?
A: Its TGI is 7.84 µM.

Q: And the GI50 [15]?
A: Its GI50 is 1.41 µM.

Q: And the TGI [15]?
A: The TGI was 7.69 µM.

Q: And the GI50 [16]?
A: The GI50 was 16.4 µM.

Q: And the TGI [16]?
A: Its TGI is 31.6 µM.

Q: And the GI50 [17]?
A: Its GI50 is 2.24 µM.

Q: What about the TGI [17] of the same molecule?
A: Its TGI is 4.99 µM.

Q: What about the GI50 [18] of the same molecule?
A: Its GI50 is 7.03 µM.

Q: What about the TGI [18] of the same molecule?
A: Its TGI is 19.7 µM.

Q: What about the GI50 [19] of the same molecule?
A: Its GI50 is 12.3 µM.

Q: What about the TGI [19] of the same molecule?
A: The TGI was 25.5 µM.

Q: What about the GI50 [20] of the same molecule?
A: The GI50 was 13.6 µM.

Q: And the TGI [20]?
A: The TGI was 26.8 µM.

Q: And the GI50 [21]?
A: Its GI50 is 4.76 µM.

Q: What about the TGI [21] of the same molecule?
A: Its TGI is 20.5 µM.

Q: And the GI50 [22]?
A: The GI50 was 2.1 µM.

Q: What about the TGI [22] of the same molecule?
A: Its TGI is 5.71 µM.

Q: And the GI50 [23]?
A: Its GI50 is 1.67 µM.

Q: And the TGI [23]?
A: Its TGI is 3.32 µM.

Q: And the GI50 [24]?
A: Its GI50 is 3.04 µM.

Q: And the TGI [24]?
A: Its TGI is 10.1 µM.

Q: What about the GI50 [25] of the same molecule?
A: The GI50 was 2.1 µM.

Q: And the TGI [25]?
A: Its TGI is 4.8 µM.

Q: And the GI50 [26]?
A: Its GI50 is 1.81 µM.

Q: What about the TGI [26] of the same molecule?
A: Its TGI is 3.24 µM.

Q: And the GI50 [27]?
A: Its GI50 is 1.84 µM.

Q: And the TGI [27]?
A: The TGI was 3.38 µM.

Q: What about the GI50 [28] of the same molecule?
A: Its GI50 is 2.31 µM.
